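Following 48 hours of exposure in 96-well plates, responses at five concentrations were used to interpolate endpoints linearly. TGI marks complete inhibition of growth.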
Tests used:
Assay in all cases: inhibition of tumour cell growth, NCI panel, 48 h
CCRF-CEM leukemia = system: CCRF-CEM leukemia
NCI-H226 lung = system: NCI-H226 lung
HCT-116 colon = system: HCT-116 colon
K-562 leukemia = system: K-562 leukemia
HT29 colon = system: HT29 colon
HOP-92 NSCLC = system: HOP-92 NSCLC
IGROV1 ovarian = system: IGROV1 ovarian
EKVX NSCLC = system: EKVX NSCLC
RXF 393 renal = system: RXF 393 renal
A498 renal = system: A498 renal
KM12 colon = system: KM12 colon
CAKI-1 renal = system: CAKI-1 renal
MDA-MB-435 = system: MDA-MB-435
DU-145 prostate = system: DU-145 prostate
T-47D breast = system: T-47D breast
MCF7 breast = system: MCF7 breast
MDA-MB-231 breast = system: MDA-MB-231 breast
BT-549 breast = system: BT-549 breast

Row | Compound | TGI (CCRF-CEM leukemia) | TGI (NCI-H226 lung) | TGI (HCT-116 colon) | TGI (K-562 leukemia) | TGI (HT29 colon) | TGI (HOP-92 NSCLC) | TGI (IGROV1 ovarian) | TGI (EKVX NSCLC) | TGI (RXF 393 renal) | TGI (A498 renal) | TGI (KM12 colon) | TGI (CAKI-1 renal) | TGI (MDA-MB-435) | TGI (DU-145 prostate) | TGI (T-47D breast) | TGI (MCF7 breast) | TGI (MDA-MB-231 breast) | TGI (BT-549 breast)
1 | CCn1c2ccccc2c2ccc3c(c21)C(=O)c1ccccc1C3=O | > 100 µM | > 100 µM | > 100 µM | > 100 µM | > 100 µM | > 100 µM | > 100 µM | > 100 µM | > 100 µM | > 100 µM | – | – | – | – | – | – | – | –
2 | C=CN1C(=O)OC[C@@H]1c1ccccc1 | > 100 µM | > 100 µM | > 100 µM | > 100 µM | > 100 µM | > 100 µM | > 100 µM | > 100 µM | > 100 µM | > 100 µM | > 100 µM | > 100 µM | – | – | – | – | – | –
3 | C=CCN(N=O)C(=O)N(CCCC(NC(C)=O)C(=O)NCc1ccccc1)Cc1ccccc1 (stereo not given) | 95.6 µM | – | – | > 100 µM | 82.4 µM | – | > 100 µM | > 100 µM | > 100 µM | > 100 µM | > 100 µM | 83.9 µM | – | – | – | – | – | –
4 | Cc1cc(NC(=O)NC(=O)c2ccccc2N)ccc1Oc1ncc(Br)cn1 | > 100 µM | 6.64 µM | 8.15 µM | > 100 µM | 0.258 µM | 53.8 µM | 24 µM | > 84.3 µM | 1.62 µM | 0.751 µM | 54.9 µM | 63.3 µM | < 0.0108 µM | > 4.64 µM | > 24.4 µM | 18.6 µM | 7.93 µM | –
5 | CCN(CC)CCC1CCCCN1CC(=O)N1c2ccccc2NC(=O)c2ccccc21 (stereo not given) | > 100 µM | > 100 µM | > 100 µM | > 100 µM | > 100 µM | > 100 µM | > 100 µM | > 100 µM | > 100 µM | > 100 µM | > 100 µM | > 100 µM | > 100 µM | > 100 µM | > 100 µM | > 100 µM | > 100 µM | –
6 | O=C(O)C12C3C4C1C1C2C3C1(Br)C41OCCO1 (stereo not given) | > 100 µM | – | > 100 µM | > 100 µM | > 100 µM | > 100 µM | > 100 µM | > 100 µM | > 100 µM | > 100 µM | > 100 µM | – | – | – | – | – | – | –
7 | COc1ccc(C(=O)/C=C/c2ccc(OCCSCCCCCCCCCCSCCOc3ccc(/C=C/C(=O)c4ccc(OC)cc4)cc3)cc2)cc1 | > 100 µM | > 100 µM | > 100 µM | > 100 µM | > 100 µM | – | > 100 µM | > 100 µM | > 100 µM | – | > 100 µM | > 100 µM | > 100 µM | > 100 µM | > 100 µM | > 100 µM | > 100 µM | –
8 | CC(C)(C)[Si](C)(C)OCC1OC(n2ccc(=O)[nH]c2=O)C(O[Si](C)(C)C(C)(C)C)[C@@]12O[C@H]2C(N)=O (stereo not given in full) | – | 11.4 µM | 22.1 µM | – | 12.4 µM | – | 8.66 µM | 34.4 µM | – | – | 44.2 µM | 28.2 µM | 23.1 µM | 17.6 µM | – | 18.7 µM | 21.7 µM | 40.2 µM
9 | O/N=C/c1cc2c(cc1Br)OCO2 | > 100 µM | > 100 µM | > 100 µM | > 100 µM | > 100 µM | – | > 100 µM | > 100 µM | – | > 100 µM | > 100 µM | > 100 µM | – | – | – | – | – | –
10 | COP(=O)(OC)C(=NCc1ccccc1)NNc1ccc([N+](=O)[O-])cc1 | 55.1 µM | – | 69 µM | > 100 µM | > 100 µM | 54.4 µM | > 100 µM | – | – | – | > 100 µM | > 100 µM | – | – | – | – | – | –
11 | COc1cc(NCc2ccc3nc(-c4ccccc4)c(N)nc3c2)cc(OC)c1OC | 77 µM | > 100 µM | 33.7 µM | > 100 µM | > 100 µM | 78.1 µM | > 100 µM | > 100 µM | 58.9 µM | 75.3 µM | 54.5 µM | 85.8 µM | 50.7 µM | 99.6 µM | 91 µM | 55.9 µM | > 100 µM | –
12 | N#Cc1c(-c2ccc(Cl)cc2)c(C#N)c(=O)n(NS(=O)(=O)c2ccccc2)c1S | > 100 µM | 77.1 µM | 91.2 µM | > 100 µM | – | > 100 µM | 65.5 µM | > 100 µM | > 100 µM | > 100 µM | – | 66.6 µM | 65 µM | > 100 µM | – | > 100 µM | 75.2 µM | 66.1 µM
13 | C=CC(C)(C)C(=C)C(=O)N(C)c1ccccc1I | > 100 µM | > 100 µM | > 100 µM | > 100 µM | > 100 µM | > 100 µM | – | > 100 µM | > 100 µM | > 100 µM | > 100 µM | > 100 µM | > 100 µM | > 100 µM | > 100 µM | > 100 µM | > 100 µM | –
14 | COc1c(OC)c(N)c2cc(C)c(=O)c(C)cc2c1N | > 100 µM | – | > 100 µM | > 100 µM | > 100 µM | > 100 µM | > 100 µM | > 100 µM | > 100 µM | > 100 µM | > 100 µM | > 100 µM | – | – | – | – | – | –
15 | C#CCOCn1ccc(=O)[nH]c1=O | > 100 µM | > 100 µM | > 100 µM | > 100 µM | > 100 µM | – | > 100 µM | > 100 µM | – | > 100 µM | > 100 µM | > 100 µM | > 100 µM | > 100 µM | > 100 µM | > 100 µM | > 100 µM | –
16 | COc1cc2c(cc1OC)CC(=O)c1cc(OC)c(OC)cc1/C=C\2 | > 12.5 µM | > 12.5 µM | > 12.5 µM | > 12.5 µM | > 12.5 µM | > 12.5 µM | > 12.5 µM | > 12.5 µM | > 12.5 µM | > 12.5 µM | > 12.5 µM | > 12.5 µM | > 12.5 µM | > 12.5 µM | – | > 12.5 µM | > 12.5 µM | –

Source: PubChem BioAssay (NCI)
